Test results as given in publication PMC7381750, “JP1 suppresses proliferation and metastasis of melanoma through MEK1/2 mediated NEDD4L-SP1-Integrin αvβ3 signaling” (Theranostics, 2020).
Where “and” joins values, the source holds several entries; their conditions need not be identical. Equal values may be shown once. Non-standard residues stand in square brackets, D forms with d. Residues, ends and D or L forms follow the SMILES beside them. pS = N[C@@H](COP(=O)(O)O)C(=O)O

How the values were obtained:
[1] = Cynomolgus monkey toxicity test: body weight; assay type: in vivo
Experimental: (§1) The test was completed by Suzhou Xishan Zhongke Drugs Research and Development Co., Ltd. (Xishan, Suzhou, China). The study proposal was approved by the Institute Animal Care and Use Committee (IACUC, ID19012912). Cynomolgus monkeys (3-4 years old) were randomly divided into three groups (n = 4 per group, half male and female); and the monkeys were treated with solvent control (Mannitol in saline, 75 mg/kg/d), JP1 (45 mg/kg/day) and JP1 (150 mg/kg/day) for 14 days. The experiment was ended on 15th day and the animals were euthanasia. The relevant clinical parameters were determined on 7th and 13th day, respectively. The observed parameters were including clinical symptoms, weight, food intake, body temperature, ophthalmology, electrocardiogram, blood routine examination, blood biochemistry, blood coagulation, urinalysis, immunotoxicity.
(§2) Supplementary database files: Cynomolgus monkey toxicity test […]
(§3) The study was conducted by a contract service in Suzhou Xishan Zhongke Drugs Research and Development Co., Ltd. (Xishan, Suzhou, China). All the use of animals were approved by the Institute Animal Care and Use Commttee, IACUC. IACUC no. :
(§4) ID19012912. The veterinarian will supervise the breeding and welfare of the animals. The company follows the Guide for the Care and Use of Laboratory Animals (8th ed., 2011).
(§5) Cynomolgus monkeys (3-4 years old) were randomly divided into three groups (n = 4 per group, two males and two females for each group); and treated q.d./i.v. with Mannitol (75 mg/kg/d in saline), JP1 (45 mg/kg/d) and JP1 (150 mg/kg/d) for 14 days, respectively. JP1 was dissolved in saline (100 mg/2 ml) and administered intravenously at a rate of 3 ml/min.
The JP1 was provided by Hybio Pharmaceutical Co., Ltd. (Shenzhen, China); the production of small packaging preparation (100 mg/vial in freeze-dried powder, purity > 98%; -20 °C for storage and transportation) was completed under strict GMP conditions and quality control procedures for biological preparations. No recovery period was set for this test; the experimental model was ended on 15th day. […]
(§6) relevant clinical indicators in two JP1 groups were no difference compared with those in […]
(§7) Level (NOAEL) of JP1 was 150 mg/kg.

[2] = 14-day cynomolgus monkey toxicity test (overall); assay type: in vivo
Experimental: as §1, with “The observed parameters were including clinical symptoms, weight, food intake, body temperature, ophthalmology, electrocardiogram, blood routine examination, blood biochemistry, blood coagulation, urinalysis, immunotoxicity.” left out
The JP1 was provided by Hybio Pharmaceutical Co., Ltd. (Shenzhen, China); the production of small packaging preparation (100 mg/vial in freeze-dried powder, purity > 98%; -20 °C for storage and transportation) was completed under strict GMP conditions and quality control procedures for biological preparations. […] The relevant clinical indicators including symptoms, body weight, food intake, temperature, ophthalmology, electrocardiogram, blood routine examination, blood biochemistry, blood coagulation, urinalysis, immunotoxicity were determined on 7th and 13th, respectively. […]
(§8) indicators in all animals, and the pathological observation of organs was not determined. […]

[3] = Cynomolgus monkey toxicity test: blood coagulation; assay type: in vivo
Experimental: as §1, §2, §3, §4, §5
(§9) The JP1 was provided by Hybio Pharmaceutical Co., Ltd. (Shenzhen, China); the production of small packaging preparation (100 mg/vial in freeze-dried powder, purity > 98%; -20 °C for storage and transportation) was completed under strict GMP conditions and quality control procedures for biological preparations. No recovery period was set for this test; the experimental model was ended on 15th day. The relevant clinical indicators including symptoms, body weight, food intake, temperature, ophthalmology, electrocardiogram, blood routine examination, blood biochemistry, blood coagulation, urinalysis, immunotoxicity were determined on 7th and 13th, respectively. […]
as §8, §6, §7

[4] = LD50 in mouse; settings: in vivo
[5] = Cynomolgus monkey toxicity test: immunotoxicity; assay type: in vivo
Experimental: as §1, §2, §3, §4, §5, §9, §8, §6, §7

[6] = Preliminary pharmacokinetic analysis in SD rats
[7] = JP1 45 mg/kg/d i.v., D7, monkeys 1105,1106,2107,2108, 45 mg/kg/day
[8] = JP1 150 mg/kg/d i.v., D7, monkeys 1209,1210,2211,2212, 150 mg/kg/day
[9] = JP1 45 mg/kg/d i.v., D13, monkeys 1105,1106,2107,2108, 45 mg/kg/day
[10] = JP1 150 mg/kg/d i.v., D13, monkeys 1209,1210,2211,2212, 150 mg/kg/day
[11] = male, Sprague-Dawley, rat, blood, ip, 100 mg/kg

## CC(=O)N[C@@H](Cc1ccccc1)C(=O)N1CCC[C@H]1C(=O)NCC(=O)N[C@@H](COP(=O)(O)O)C(=O)N[C@@H](CC(=O)O)C(=O)N[C@@H](CCCNC(=N)N)C(=O)N[C@@H](Cc1ccccc1)C(=O)NCC(=O)NCC(=O)NCC(=O)NCC(=O)N[C@@H](CCCNC(=N)N)C(=O)NCC(=O)N[C@@H](CC(=O)O)C(N)=O [JP1] (Ac-FPG[pS]DRFGGGGRGD-NH2)
[1]; [7]
  Body weight: 2.1 kg and 2.2 kg and 2.3 kg
[1]; JP1 45 mg/kg/d i.v., D14, monkeys 1105,1106,2107,2108, 45 mg/kg/day
  Body weight: 2.5 kg and 2.4 kg
[1]; [8]
  Body weight: 2.4 kg and 2.2 kg and 2.3 kg
[1]; JP1 150 mg/kg/d i.v., D14, monkeys 1209,1210,2211,2212, 150 mg/kg/day
  Body weight: 2.2 kg and 2.3 kg and 2.6 kg
[2]; I.V. 45 or 150 mg/kg/day for 14 days, compared to control
  changes in detected parameters (clinical symptoms, weight, food intake, body temperature, ophthalmology, ECG, blood, urinalysis, immune-toxicity): no significant changes in all detected parameters
[2]; both sexes, in vivo, iv, 14 days, read-out: no observed adverse effect level (NOAEL)
  NOAEL at 14 days: 150 mg/kg
[3]; [7]
  APTT: 23.2 s and 28.0 s and 25.5 s and 25.1 s
  FIB: 2.59 g/L and 2.84 g/L and 2.33 g/L and 2.34 g/L
  PT: 11.8 s and 11.0 s and 12.2 s and 11.9 s
[3]; [9]
  APTT: 25.3 s and 24.6 s and 24.2 s and 22.6 s
  FIB: 3.02 g/L and 2.81 g/L and 2.68 g/L and 2.51 g/L
  PT: 11.7 s and 12.2 s and 10.9 s
[3]; [8]
  APTT: 23.7 s and 25.2 s and 33.8 s and 27.7 s
  FIB: 2.71 g/L and 3.21 g/L and 2.66 g/L and 2.89 g/L
  PT: 11.8 s and 12.5 s and 11.7 s and 12.0 s
[3]; [10]
  APTT: 23.5 s and 24.9 s and 29.9 s and 27.8 s
  FIB: 2.90 g/L and 2.99 g/L and 2.97 g/L and 3.27 g/L
  PT: 11.9 s and 12.4 s and 11.8 s and 11.7 s
[4]
  LD50: > 5000 mg/kg
[5]; [7]
  CD3+CD4+: 14.420% and 14.760% and 20.160% and 13.220%
  CD3+CD8+: 27.140% and 25.500% and 32.040% and 35.620%
[5]; [9]
  CD3+CD4+: 13.100% and 19.100% and 14.180% and 13.220%
  CD3+CD8+: 41.820% and 43.140% and 47.160% and 31.220%
[5]; [8]
  CD3+CD8+: 35.120% and 32.940% and 27.060% and 33.660%
[5]; [10]
  CD3+CD4+: 24.420% and 20.280% and 28.260% and 22.580%
  CD3+CD8+: 40.460% and 36.280% and 38.920% and 46.260%
[6]; SD rats, 100 mg/kg i.p., from 0.25 h and 1 h concentrations
  elimination rate constant k: 0.526
[6]; [11]
  level at 0.25 h: 20500 ng/mL
  level at 1 h: 13800 ng/mL
